Measured values from patent US5721231A, “Thienotriazolodiazepine compound and pharmaceutical use thereof” (Yoshitomi Pharmaceutical Industries, Ltd., priority 1993, dated 1998).

Legend:
[1] = test system: TDI-induced rhinitis in guinea pig; assay: Tolylene 2,4-diisocyanate (TDI)-induced rhinitis in guinea pig (Experimental Example 4); format: in vivo; details: for Number of leukocytes, mean ± S.D.: sensitized, control 20.0 ± 2.04, p < 0.01
Procedure: Guinea pigs (three to six per group) were sensitized by applying a mixture of TDI and ethyl acetate (1:7) with cotton buds to both of their nasal cavities under anesthetization with diethyl ether on days 0 to 3 and days 7 to 10. On days 27, 29, 31 and 35, the reaction of the guinea pigs was challenged by applying the same mixture to the nasal cavities in a similar manner as described above. Three hours after the last challenge, the guinea pigs were anesthetized with pentobarbital (30 mg/kg, i.p.), and the nasal cavities were washed with physiological saline. Number of leukocytes in the fluid obtained above was counted with an automatic blood cell counter. Compound A (0.1, 1 or 10 μg/20 μl/site×2/guinea pig) was dissolved in 20% hydroxypropyl-β-cyclodextrin solution containing 1% dimethyl sulfoxide and injected into the both nasal cavities of guinea pigs 1 hour before the last challenge (on day 35).

[2] = test system: Adhesion of guinea pig peritoneal cells to HUVECs; assay: Cell adhesion of guinea pig peritoneal cells to human umbilical vein-derived endothelial cells (HUVECs); format: cell-based
Procedure: HUVECs were suspended in 199 medium containing 20% fetal calf serum, 20 μg/ml endothelial cell growth factor derived from bovine brain and 100 μg/ml heparin, plated into 96-well microculture plates coated with collagen, and cultured at 37° C. in 5% CO2. When cells were grown to confluence, interleukin 1 (10 U/ml) was added, and the cells were cultured for 24 hours. After the cells were washed once with 199 medium, leukotriene B4 (1 μM), Compound A and guinea pig peritoneal cells [300,000 cells/well, obtained by intraperitoneally injecting 0.1% oyster glycogen (25 ml) and recovering 5 hours later] were added, and the cells were incubated for 30 minutes at 37° C. in 5% CO2. After nonadherent cells were removed by inverting the plates, rose bengal solution (0.25% in phosphate-buffered physiological saline) was added and the plates were kept still for 5 minutes. The cells were washed twice with 199 medium. Ethanol (50% in phosphate-buffered physiological saline) was added (200 μl/well) and the cells were kept still for 30 minutes to allow the leakage of rose bengal dye incorporated into the cells. Absorbance at 520 nm was measured with a 96-well plate reader and the value obtained by subtracting absorbance of the well Containing HUVECs alone was taken as an indicator of cell adhesion.

[3] = test system: Antigen (egg albumin)-induced eosinotaxis in lung of guinea pigs; assay: Inhibitory effect on topical eosinotaxis in lung induced by antigen (Experimental Example 5); format: in vivo, guinea pig (male Hartley)
Procedure: Male Hartley guinea pigs (4 weeks old, Japan SLC) were bred under the homoiothermal (23±2° C.) and homohumidity (55±5%) conditions.
Compound A was dissolved in 20% 2-hydroxypropyl-β-cyclodextrin containing 1% dimethyl sulfoxide to a concentration of 0.01%.
Antigen (egg albumin, Sigma, 10 mg/ml in saline) was nebulized on guinea pigs for 10 minutes with an ultrasonic nebulizer (NE-U12, OMRON CORPORATION). One week later, the antigen was nebulized again in the same manner.
At one week after the second antigen inhalation, mepyramine (Sigma, 10 mg/ml in saline) was intraperitoneally administered by 1 ml/kg. Twenty minutes later, a solution of Compound A (0.01%) or the medium (control) was nebulized for 10 minutes with a jet nebulizer (Nippon Shoji, Ltd.). Immediately thereafter, the antigen (egg albumin, 10 mg/ml) was nebulized for 5 minutes with an ultrasonic nebulizer. Five hours later, the solution of Compound A (0.01%) or the medium was nebulized again for 10 minutes with a jet nebulizer. […] At 24 hours after the antigen nebulizing, the lung was washed three times with physiological saline (10 ml, 37° C.), and the total number of the cells in the collected lung washings was counted by a colter counter (MEK 4200, Nippon Koden). […] The number of eosinophils was calculated from the ratio of existing cells and the total cell number.

[4] = test system: Picryl chloride-induced ear edema in mice; assay: Picryl chloride-induced ear edema in mice (Experimental Example 3); format: in vivo, mouse; details: cyclophosphamide +, 10 μl/site intradermal, control 10.8 ± 1.3
Procedure: Cyclophosphamide (150 mg/kg) was administered subcutaneously to mice on day -2. The mice were sensitized twice by applying 50 μl of picryl chloride solution (70 mg/ml in ethanol) to their shaved abdomen on days 0 and 1. On day 13, 10 μl of picryl chloride solution (10 mg/ml in ethanol) was applied to each surface of the right ear. Two days later (on day 15), the right and left ears were cut out with a puncher of 6 mm in diameter and weighed with an electronic reading balance. The difference in weight between the treated (right) ear and the untreated (left) ear was taken as an indicator of edema. […] […] The group treated with cyclophosphamide and picryl chloride was taken as a control, and statistical significance was evaluated by Dunnett's test.

[5] = test system: CD11b expression in U937 cells; assay: Effect on CD11b expression in human histiocytic leukemia cell line U937; format: cell-based; details: U-937, 72 h, PDB 10 ng/ml, 3 days, read-out: Inhibitory effect on CD11b expression (IC50)
Procedure: Effect on the expression of CD11b antigen, which constitutes the a chain of Mac-1, one of the adhesion molecules expressed on the surface of leukocytic cells, was investigated. U937 cells were suspended in RPMI1640 medium containing 20% fetal calf serum, plated with phorbol 12,13-dibutyrate (PDB, 10 ng/ml) and Compound A or Compound B into 96-well filtration plates (30,000 cells/well), and cultured for 3 days at 37° C. in 5% CO2. After the cells were washed once with RPMI1640 medium, rat anti-human CD11b monoclonal antibody (2 μg/ml) was added and the plates were kept for 1 hour on ice. After the cells were washed twice, peroxidase-conjugated anti-rat immunoglobulin antibody (1 μg/ml) was added, and the cells were kept for 1 hour on ice. After the cells were washed 3 times, o-phenylenediamine was added as a substrate for peroxidase. The plates were allowed to stand for 15 minutes at room temperature, and absorbance at 490 nm was measured with a 96-well plate reader. The absorbance was regarded as an indicator of CD11b antigen expression.

[6] = test system: Oxazolone-induced ear edema in mice; assay: Oxazolone-induced ear edema in mice (oral administration, Experimental Example 8); format: in vivo, mouse; details: for Ear edema (right ear-left ear), mean ± S.D.: sensitized, days 0 to 8, control 17.6 ± 1.1, p < 0.01
Procedure: Mice were sensitized by applying 50 μl of oxazolone solution (50 mg/ml in acetone) to their shaved abdomen on day 0. On day 7, 5 μl of oxazolone was applied to each surface of the right ear. After 24 hours, the right and left ears were cut out with a puncher of 6 mm in diameter and weighed with an electronic reading balance. The difference in weight between the treated ear (right) and untreated ear (left) was taken to reflect the degree of ear edema. Compound A was suspended in 0.5% methylcellulose solution and administered orally (0.1 ml/10 g body weight) on days 0 to 8.

[7] = test system: VCAM-1 expression in HUVECs; assay: Inhibitory effect on expression of VCAM-1 in human umbilical vein-derived endothelial cells (HUVECs); format: cell-based
Procedure: HUVECs were suspended in 199 medium (Biocell Laboratories, Inc., Rancho Dominguez, Calif. USA) containing 20% fetal calf serum, 20 μg/ml endothelial cell growth factor derived from bovine brain and 100 μg/ml heparin, plated into 96-well microculture plates coated with collagen, and cultured at 37° C. in 5% CO2. When cells were grown to confluence, the cells received tumor necrosis factor-α (100 U/ml) and the test compound A, and cultured for 5 hours. After the cells were washed once with 199 medium, mouse anti-human VCAM-1 monoclonal antibody (2 μg/ml) was added, and the cells were incubated for 1 hour at room temperature. After the cells were washed twice, peroxidase-conjugated anti-mouse immunoglobulin antibody was added, and the cells were incubated for 1 hour at room temperature. After the cells were washed 3 times, a substrate for peroxidase, 2,2'-azino-bis(3-ethylbenzothiazolone-6-sulfonicacid), was added. After the plates were stood for 15 minutes at room temperature, absorbance at 405 nm with a reference wave length of 490 nm was measured with a 96-well microplate reader and was regarded as an indicator of VCAM-1 expression.

[8] = test system: Oxazolone-induced ear edema in mice; assay: Oxazolone-induced ear edema in mice (intradermal administration, Experimental Example 2); format: in vivo, mouse
Procedure: […] On day 7, 5 μl of oxazolone solution was applied to each surface of the right ear. After 24 hours (day 8), the right and left ears were cut out with a puncher of 6 mm in diameter and weighed with an electronic reading balance. The difference in weight between the oxazolone-treated ear (right) and untreated ear (left) was taken to reflect the degree of ear edema. Compound A was dissolved in 20% 2-hydroxypropyl-β-cyclodextrinsolution containing 1% dimethyl sulfoxide and injected intradermally into the mouse right ear (25 μl/site) on day 7 (immediately before application of oxazolone).

COc1ccccc1NC(=O)NC1N=C(c2ccc(Cl)cc2)c2c(sc(C)c2C)-n2c(C)nnc21 (racemic) [Compound A, N-(4-(4-chlorophenyl)-2,3,9-trimethyl-6H-thieno[3,2-f][1,2,4]triazolo[4,3-a][1,4]diazepin-6-yl)-N'-(2-methoxyphenyl)urea]
Inhibition of leukocyte infiltration (in words) ([1]; administration into the nasal cavity): inhibited the leukocyte infiltration in TDI-induced guinea pig rhinitis dose-dependently
Number of leukocytes, mean ± S.D. ([1]; 0.1 μg/site into nasal cavities): 12.7 ± 1.41 ×100 cells/μl
Number of leukocytes, mean ± S.D. ([1]; 1 μg/site into nasal cavities): 7.1 ± 1.19 ×100 cells/μl
Number of leukocytes, mean ± S.D. ([1]; 10 μg/site into nasal cavities): 2.8 ± 0.17 ×100 cells/μl
Inhibition of adhesion of guinea pig peritoneal cells (in words) [2]: inhibited adhesion of guinea pig peritoneal cells to vascular endothelial cells in a concentration-dependent manner
inhibition at 0.01 µM ([2]; Cavia porcellus, HUVEC, Compound A 0.01 μM, leukotriene B4 1 μM): -4.7%
inhibition at 0.1 µM ([2]; Cavia porcellus, HUVEC, Compound A 0.1 μM, leukotriene B4 1 μM): 32.6%
inhibition at 1 µM ([2]; Cavia porcellus, HUVEC, Compound A 1 μM, leukotriene B4 1 μM): 95.5%
inhibition at 10 µM ([2]; Cavia porcellus, HUVEC, Compound A 10 μM, leukotriene B4 1 μM): 97.9%
IC50 ([2]; Cavia porcellus, HUVEC, leukotriene B4 1 μM, read-out: concentration necessary for 50% inhibition (IC50 values, μM) of adhesion): ~0.2 µM
Cell adhesion (absorbance at 520 nm) ([2]; Compound A 0.01 μM, leukotriene B4 1 μM): 0.222 absorbance at 520 nm
Cell adhesion (absorbance at 520 nm) ([2]; Compound A 0.1 μM, leukotriene B4 1 μM): 0.169 absorbance at 520 nm
Cell adhesion (absorbance at 520 nm) ([2]; Compound A 1 μM, leukotriene B4 1 μM): 0.080 absorbance at 520 nm
Cell adhesion (absorbance at 520 nm) ([2]; Compound A 10 μM, leukotriene B4 1 μM): 0.077 absorbance at 520 nm
Number of eosinophils (×10^6) ([3]; 0.01% solution nebulized, lung washings 24 hours after antigen, control 20.7 ± 2.95, p < 0.05): 8.9 ± 3.7 ×10^6
Eosinophil in lung washings (in words) ([3]; inhalation, 0.01%): significant decrease in eosinophil in lung washings
Ear edema (right ear-left ear), mean ± S.D. [4]: 7.8 ± 0.4 mg
IC50 [5]: 250 nM
Inhibition of ear edema (in words) ([6]; oral administration): inhibited ear edema in mice in a dose-dependent manner
Ear edema (right ear-left ear), mean ± S.D. ([6]; oral 10 mg/kg/day): 16.0 ± 0.7 mg
Ear edema (right ear-left ear), mean ± S.D. ([6]; oral 30 mg/kg/day): 15.4 ± 0.5 mg
Ear edema (right ear-left ear), mean ± S.D. ([6]; oral 100 mg/kg/day): 14.4 ± 0.5 mg
Inhibition of expression of VCAM-1 on HUVEC (in words) [7]: inhibited expression of VCAM-1 on HUVEC in a concentration-dependent manner
inhibition at 1 pM ([7]; Homo sapiens, HUVEC, Compound A 1 pM, TNF-α 100 U/ml, 5 hours): 19.7%
inhibition at 10 pM ([7]; Homo sapiens, HUVEC, Compound A 10 pM, TNF-α 100 U/ml, 5 hours): 67.1%
inhibition at 0.0001 µM ([7]; Homo sapiens, HUVEC, Compound A 100 pM, TNF-α 100 U/ml, 5 hours): 82.3%
inhibition at 0.001 µM ([7]; Homo sapiens, HUVEC, Compound A 1000 pM, TNF-α 100 U/ml, 5 hours): 80.8%
Inhibition of ear edema (in words) ([8]; intradermal administration): inhibited ear edema in sensitized or unsensitized mice in a dose-dependent manner
Ear edema (right ear-left ear), mean ± S.D. ([8]; sensitized, 1 μg/site intradermal, control 16.8 ± 0.7, p < 0.01): 15.0 ± 0.6 mg
Ear edema (right ear-left ear), mean ± S.D. ([8]; sensitized, 10 μg/site intradermal, control 16.8 ± 0.7, p < 0.01): 13.3 ± 0.7 mg
Ear edema (right ear-left ear), mean ± S.D. ([8]; unsensitized, 1 μg/site intradermal, control 7.7 ± 1.6, p < 0.05): 5.7 ± 1.1 mg
Ear edema (right ear-left ear), mean ± S.D. ([8]; unsensitized, 10 μg/site intradermal, control 7.7 ± 1.6, p < 0.05): 5.3 ± 0.7 mg

COc1ccccc1NC(=O)NC1N=C(c2ccc(Cl)cc2)c2c(sc(C)c2C)-n2c(C)nnc21 (single isomer, unassigned; (-)) [Compound B, (-)-N-(4-(4-chlorophenyl)-2,3,9-trimethyl-6H-thieno[3,2-f][1,2,4]triazolo[4,3-a][1,4]diazepin-6-yl)-N'-(2-methoxyphenyl)urea]
IC50 [5]: 63 nM
